# Results from US20250011404A1, “TARGETING APOE ENHANCES T-CELL KILLING IN CANCER IMMUNOTHERAPY” (Children's National Medical Center, priority 2021, published 2025).
# Entries after “also recorded” stand apart in the source; their conditions may differ.
# How the values were obtained:
# [1] = test system: vaccinated splenocytes co-cultured with Myc inhibited B16 tumor cells; assay: IFNγ ELISA, vaccinated splenocytes co-cultured with immunogenic B16 cells; type: cell-based, mouse; conditions: vaccinated WT splenocytes + Myc-inhibited B16 cells, 48 hr, in presence of COG133, dose dependent
# Procedure: To further investigate the influence of tumor secreted apoE on immune cell function, immunogenic B16 tumor cells (B16 cells treated with Myc inhibitors (0.25 μM BET+0.25 μM JQ1 for 4 days) were irradiated at 60 Gray and co-cultured with naïve C57/BL6 splenocytes in the presence of either apoE mimetic COG133 at 0.3, 3 and 9 μM or anti-APOE blocking antibody at 1, 10 and 30 μg/ml concentrations. Prior work has shown the immunogenic effect of treating cancer cells with Myc inhibitors and irradiation. IFNγ production was quantified by ELISA at 48 h. Splenocytes produced high levels of IFNγ when co-cultured with Myc-inhibited immunogenic B16 cells as shown in FIGS. 3A-3C. Exposure of these cells to apoE mimetic COG133 repressed IFNγ production (6-fold reduction) (FIG. 3A), while the presence of Anti-APOE antibody enhanced IFNγ production (3-fold increase) (FIG. 3B). We also tested IFNγ production from vaccinated splenocytes following co-culture with treated and untreated B16 cells in the presence of COG 133. […] In addition to IFNγ, we also quantified other cytokine/chemokines using ProcartaPlex multiplex immunoassay. […] In addition, using ProcartaPlex multiplex immunoassay, we also quantified other cytokines/chemokines produced in the reaction. […] Readings were measured at 450 nm using the EnSpire 2300 Multilabel plate reader (Perkin Elmer, Waltham, Massachusetts, US).
# [2] = test system: Mouse bone-marrow derived dendritic cells (DC); assay: Cytokine production of TLR7/8 activated bone-marrow derived dendritic cells, multiplex ELISA; type: cell-based; conditions: 48 hr
# Procedure: Mouse bone-marrow derived dendritic cells (DC) were cultured in the presence of the indicated concentrations of apoE agonist COG133 for 48 hr. COG133 increased the production of anti-inflammatory IL-10, GM-CSF, and chemokines MCP-1 and MCP-3 by TLR7/8 activated DC while decreasing the levels of proinflammatory cytokines IL-1α, IL-1β and IL-23 in a dose-dependent manner as determined by multiplex ELISA.
# Cell culture supernatant was collected after centrifuge at 1,200 rpm for 10 min at 4° C. The concentrations of the following immune molecules were determined using the mouse Cytokine & Chemokine 36-plex ProcartaPlex Panel, a magnetic bead-based multiplex immunoassay (Thermo Scientific) following our previous protocol(19). Briefly, cell culture supernatant samples were mixed with antibody-linked polystyrene beads on a 96-well plate and incubated at room temperature (RT) for 2 h on an orbital shaker at 500 rpm. After washing, plates were incubated with biotinylated detection antibody for 30 min at RT. Plates were then washed twice and then labeled beads were resuspended in streptavidin-PE. Each sample was measured in duplicate along with standards (8-point dilutions) and the buffer control. Plates were read using a Luminex Bio-plex 200 system (Bio-Rad Corp.) for quantitative analysis.
substance,measurement,setting,value
"COG133: a fragment of apoE peptide, which competes with the apoE holoprotein for binding the LDL receptors and acts as an apoE mimetic",IFNγ production from vaccinated splenocytes,[1],inhibited; also recorded: inhibitory; also recorded: significantly suppressed
same,IFNγ production from vaccinated splenocytes,[1]; listed as COG 133,suppressed
same,"IL-1α, IL-1β and IL-23 levels of activated DC",[2]; dose dependent,suppressed; also recorded: decreasing
same,secretion of anti-inflammatory cytokine IL-10 from activated DC,[2]; dose dependent,induced secretion
same,"production of IL-10, GM-CSF, MCP-1 and MCP-3 by TLR7/8 activated DC","[2]; indicated concentrations, multiplex ELISA (FIG. 16)",increased
